This is an account of results in patent publication US9783510B2, “Small molecule mediated transcriptional induction of E-cadherin” (Vanderbilt University, priority 2014, dated 2017).

By fold induction is commonly meant the ratio of treated to control signal. Broadly, the EC50 is the concentration that produces a half-maximal response. Low readings indicate greater potency, high ones weaker potency.

This experiment has as its system E-cadherin expression in SW620 cells. Nature of the experiment: E-cadherin expression, in-cell Western (ICW), SW620 cells. To be noted: for fold induction at 10 µM: SW-620, 24 h. Type of experiment: cell-based. As to the method:
SW620 and H520 cells (5×10^4/100 μL) were seeded in a 96-well plate prior to treatment. Cells were treated with 10 μM concentration of synthesized compound in quadruplicate for 24 hours in RPMI 1640 supplemented medium and 100 μg/mL penicillin-streptomycin. The cells were then fixed with 100% methanol for 20 minutes at 4° C. The wells were then washed 2 times with PBS, permeabilized in 2% bovine serum albumin (BSA) and 0.2% TritonX-100 in PBS for 30 minutes at room temperature with gentle agitation, and blocked in LI-COR blocking buffer for 30 minutes at room temperature with gentle agitation. The cells were then incubated with the following primary antibodies: anti-E-Cadherin (1:500) and anti-α-Tubulin (1:1000) diluted in blocking buffer (1:1 dilution in PBS) for 2 hours at room temperature with gentle agitation. The cells were washed 4 times in PBS-T for 5 minutes each, and then incubated with the following secondary antibodies conjugated to a fluorescent entity: IRDye 800-conjugated goat anti-rabbit IgG (1:1000) and IRDye-700-conjugated goat anti-mouse IgG (1:2000) in blocking buffer (1:1 dilution in PBS) with gentle agitation for 1 h at room temperature. The cells were washed 4 times in PBS-T for 5 minutes each followed by a single wash with PBS. All liquid was removed from the wells and the plates were visualized and analyzed on the Odyssey IR imaging system (LI-COR Biosciences).
The assay was further optimized in the following manner. The cells were washed 2 times with PBS, fixed in 100% methanol at room temperature for 15 minutes, and again washed 2 times with PBS. The cells were then incubated with the following primary antibodies: anti-E-Cadherin (1:200) and anti-α-Tubulin (1:2000) diluted in ice cold 2% bovine serum albumin (BSA) and 0.2% TritonX-100 in PBS for 1 hour at room temperature with gentle agitation. The cells were washed 2 times in PBS and then incubated with the following secondary antibodies conjugated to a fluorescent entity: Licor 800-conjugated goat anti-rabbit IgG (1:2000) and IRDye-700-conjugated goat anti-mouse IgG (1:2000) in ice cold 2% BSA and 0.2% TritonX-100 in PBS with gentle agitation for 45 minutes at room temperature. The wells were washed 2 times in PBS, dried, and analyzed as previously mentioned.
N-Acetamidoalkyl-5-arylisoxazole-3-carboxamide analogs were synthesized as described above. Changes in expression level of E-cadherin in response to 10 μM compound in SW620 cells was determined in a cell-based functional assay as described above, and the data are shown in Table III. The compound number corresponds to the compound numbers used in Table II.
EC50 of inducement of E-cadherin expression in SW620 cells was determined in a cell-based functional assay as described above, and the data are shown in Table V. The compound number corresponds to the compound numbers used in Table IV.

The mark [1] stands for this setting: Homo sapiens, change in expression level of E-cadherin in response to 10 μM compound, 24 hours, SW620 cells.

Structures are written as SMILES.

Consider `O=C(NCCCNC(=O)c1ncccc1F)c1cc(-c2ccccc2)on1` [Compound 61, N-(3-(3-fluoropicolinamido)propyl)-5-phenylisoxazole-3-carboxamide], for which the fold induction at 10 µM under setting [1] came out at 2.94.
Regarding `O=C(NCCCNC(=O)c1cccc(Br)n1)c1cc(-c2ccccc2)on1` [Compound 62, N-(3-(6-bromopicolinamido)propyl)-5-phenylisoxazole-3-carboxamide], the fold induction at 10 µM under setting [1] came to 2.59.
Under setting [1], `Cc1ccc(C(=O)NCCCNC(=O)c2cc(-c3ccccc3)on2)c(O)n1` [Compound 63, N-(3-(2-hydroxy-6-methylnicotinamido)propyl)-5-phenylisoxazole-3-carboxamide] yielded a fold induction at 10 µM of 4.59. The EC50 (Homo sapiens, SW-620, inducement of E-cadherin expression in SW620 cells) is 5.64 µM.
Under setting [1], `O=C(NCCCNC(=O)c1cc(-c2ccccc2)on1)c1ccnc(O)c1` [Compound 64, N-(3-(2-hydroxyisonicotinamido)propyl)-5-phenylisoxazole-3-carboxamide] yielded a fold induction at 10 µM of 1.8.
Still for that read-out and setting: the value for `Cc1ncccc1C(=O)NCCCNC(=O)c1cc(-c2ccccc2)on1` [Compound 65, N-(3-(2-methylnicotinamido)propyl)-5-phenylisoxazole-3-carboxamide] was 2.05; that for `COC(=O)c1ccc(C(=O)NCCCNC(=O)c2cc(-c3ccccc3)on2)nc1` [Compound 66, methyl 6-((3-(5-phenylisoxazole-3-carboxamido)propyl)carbamoyl)nicotinate] was 1.55.
The compound `O=C(NCCCNC(=O)c1cc(-c2ccccc2)on1)c1ccc(O)nc1` [Compound 67, N-(3-(6-hydroxynicotinamido)propyl)-5-phenylisoxazole-3-carboxamide] came in with a fold induction at 10 µM under setting [1] of 1.22.
For the compound `O=C(NCCCNC(=O)c1cc(Br)cnc1O)c1cc(-c2ccccc2)on1` [Compound 68, N-(3-(5-bromo-2-hydroxynicotinamido)propyl)-5-phenylisoxazole-3-carboxamide], the fold induction at 10 µM under setting [1] amounted to 1.61.
`Cc1ccnc(O)c1C(=O)NCCCNC(=O)c1cc(-c2ccccc2)on1` [Compound 69, N-(3-(2-hydroxy-4-methylnicotinamido)propyl)-5-phenylisoxazole-3-carboxamide]: under setting [1], the fold induction at 10 µM was 2.
The same measure, in the same setting: the value for `COc1ncccc1C(=O)NCCCNC(=O)c1cc(-c2ccccc2)on1` [Compound 70, N-(3-(2-methoxynicotinamido)propyl)-5-phenylisoxazole-3-carboxamide] was 2.62.
`Cc1cccnc1C(=O)NCCCNC(=O)c1cc(-c2ccccc2)on1` [Compound 71, N-(3-(3-methylpicolinamido)propyl)-5-phenylisoxazole-3-carboxamide] yielded a fold induction at 10 µM under setting [1] of 3.61.
Under setting [1], `O=C(NCCCNC(=O)c1ccc2ccccc2n1)c1cc(-c2cccs2)on1` [Compound 72, N-(3-(quinoline-2-carboxamido)propyl)-5-(thiophen-2-yl)isoxazole-3-carboxamide] had a fold induction at 10 µM of 3.13.
Under setting [1], `O=C(NCCCNC(=O)c1cnc2ccccn12)c1cc(-c2cccs2)on1` [Compound 73, N-(3-(imidazo[1,2-a]pyridine-3-carboxamido)propyl)-5-(thiophen-2-yl)isoxazole-3-carboxamide] showed a fold induction at 10 µM of 3.04.
The same measure, in the same setting: to `O=C(NCCCNC(=O)c1ccc(Br)o1)c1cc(-c2cccs2)on1` [Compound 74, N-(3-(5-bromofuran-2-carboxamido)propyl)-5-(thiophen-2-yl)isoxazole-3-carboxamide] belongs 3.06; to `O=C(NCCCNC(=O)c1cccs1)c1cc(-c2cccs2)on1` [Compound 75, 5-(thiophen-2-yl)-N-(3-(thiophene-2-carboxamido)propyl)isoxazole-3-carboxamide], 3.05; to `O=C(NCCCNC(=O)c1ccc(C(F)(F)F)o1)c1cc(-c2cccs2)on1` [Compound 76, 5-(thiophen-2-yl)-N-(3-(5-(trifluoromethyl)furan-2-carboxamido)propyl)isoxazole-3-carboxamide], 2.68.
As to `Cc1ccc(C(=O)NCCCNC(=O)c2cc(-c3cccs3)on2)o1` [Compound 77, N-(3-(5-methylfuran-2-carboxamido)propyl)-5-(thiophen-2-yl)isoxazole-3-carboxamide], the fold induction at 10 µM under setting [1] is 2.99.
Under setting [1], `Cc1noc(C(=O)NCCCNC(=O)c2cc(-c3cccs3)on2)n1` [Compound 78, 3-methyl-N-(3-(5-(thiophen-2-yl)isoxazole-3-carboxamido)propyl)-1,2,4-oxadiazole-5-carboxamide] had a fold induction at 10 µM of 1.97.
The compound `Nc1ccc(C(=O)NCCCNC(=O)c2cc(-c3cccs3)on2)cn1` [Compound 79, N-(3-(6-aminonicotinamido)propyl)-5-(thiophen-2-yl)isoxazole-3-carboxamide] displayed a fold induction at 10 µM under setting [1] of 3.58.
With `Cc1nc(C(=O)NCCCNC(=O)c2cc(-c3cccs3)on2)no1` [Compound 80, 5-methyl-N-(3-(5-(thiophen-2-yl)isoxazole-3-carboxamido)propyl)-1,2,4-oxadiazole-3-carboxamide], the fold induction at 10 µM under setting [1] is 2.83.
Turning to `O=C(NCCCNC(=O)c1cccc(Cl)n1)c1cc(-c2cccs2)on1` [Compound 81, N-(3-(6-chloropicolinamido)propyl)-5-(thiophen-2-yl)isoxazole-3-carboxamide], the fold induction at 10 µM under setting [1] was found to be 3.09.
For the compound `N#Cc1ccnc(C(=O)NCCCNC(=O)c2cc(-c3cccs3)on2)c1` [Compound 82, N-(3-(4-cyanopicolinamido)propyl)-5-(thiophen-2-yl)isoxazole-3-carboxamide], the fold induction at 10 µM under setting [1] is 2.8.
`O=C(NCCCNC(=O)c1cncc(Cl)n1)c1cc(-c2cccs2)on1` [Compound 83, N-(3-(6-chloropyrazine-2-carboxamido)propyl)-5-(thiophen-2-yl)isoxazole-3-carboxamide] had a fold induction at 10 µM under setting [1] of 2.64.
For `O=C(NCCCNC(=O)c1cc2ccccc2o1)c1cc(-c2cccs2)on1` [Compound 85, N-(3-(benzofuran-2-carboxamido)propyl)-5-(thiophen-2-yl)isoxazole-3-carboxamide], under setting [1], the fold induction at 10 µM stood at 3.26.
Consider `O=C(NCCCNC(=O)c1ccc2ccccc2n1)c1cc(-c2ccccc2)on1` [Compound 86, 5-phenyl-N-(3-(quinoline-2-carboxamido)propyl)isoxazole-3-carboxamide], for which, under setting [1], the fold induction at 10 µM is 3.48.
Under setting [1], `O=C(NCCCNC(=O)c1cnc2ccccn12)c1cc(-c2ccccc2)on1` [Compound 87, N-(3-(imidazo[1,2-a]pyridine-3-carboxamido)propyl)-5-phenylisoxazole-3-carboxamide] had a fold induction at 10 µM of 2.4.
Still for that read-out and setting: to `O=C(NCCCNC(=O)c1ccc(C(F)(F)F)o1)c1cc(-c2ccccc2)on1` [Compound 89, 5-phenyl-N-(3-(5-(trifluoromethyl)furan-2-carboxamido)propyl)isoxazole-3-carboxamide] belongs 2.13.
With `Nc1ccc(C(=O)NCCCNC(=O)c2cc(-c3ccccc3)on2)cn1` [Compound 90, N-(3-(6-aminonicotinamido)propyl)-5-phenylisoxazole-3-carboxamide], the “fold change SW620 ICW” value (change in expression level of E-cadherin in response to 10 μM compound, 24 hours, SW620 cells) is on record as 2.50 fold.
Consider `Cc1nc(C(=O)NCCCNC(=O)c2cc(-c3ccccc3)on2)no1` [Compound 91, 5-methyl-N-(3-(5-phenylisoxazole-3-carboxamido)propyl)-1,2,4-oxadiazole-3-carboxamide], for which the fold induction at 10 µM under setting [1] was found to be 3.47.
In the case of `O=C(NCCCNC(=O)c1cccc(Cl)n1)c1cc(-c2ccccc2)on1` [Compound 92, N-(3-(6-chloropicolinamido)propyl)-5-phenylisoxazole-3-carboxamide], under setting [1], the fold induction at 10 µM came to 3.13.
In the case of `N#Cc1ccnc(C(=O)NCCCNC(=O)c2cc(-c3ccccc3)on2)c1` [Compound 93, N-(3-(4-cyanopicolinamido)propyl)-5-phenylisoxazole-3-carboxamide], the fold induction at 10 µM under setting [1] came out at 2.88.
On the same count and under the same terms, the value for `O=C(NCCCNC(=O)c1cncc(Cl)n1)c1cc(-c2ccccc2)on1` [Compound 94, N-(3-(6-chloropyrazine-2-carboxamido)propyl)-5-phenylisoxazole-3-carboxamide] was 3.69.
